# Data published in patent publication US7579180B2, “Beta secretase polypeptides” (Amgen Inc., priority 1999, dated 2009).
# Experiments:
# [1] = target: T1, human beta-secretase-Fc fusion (Homo sapiens, UniProt P56817); assay: Beta-secretase activity assay: cleavage of DNP-labeled APP peptides, HPLC; format: biochemical; conditions: peptide substrate 20 μM, pH 5.0, about 6 hours, room temperature; FIG. 11
# T1 construct: A plasmid containing cDNA encoding amino acids 1-460 of beta-secretase fused to the Fc portion of human IgG; made in house; host or cells: human embryonic kidney 293T cells, stably transfected; purified from conditioned medium on protein A
# Protocol: FIG. 11 is a graph depicting the ability of human beta-secretase-Fc fusion to cleave various APP peptides. The X-axis is the amount of enzyme in the reaction mixture and the Y-axis is the amount of cleavage (denoted as pmol product formed) of each of three substrate peptides. “Sw” refers to the APP peptide with the Swedish mutation; “Wt” refers to wild type APP peptide; and “MV” refers to a mutated APP peptide.
# Recombinant native as well as mutant beta secretase polypeptides were assayed for activity by measuring the ability of the molecule to cleave various A-beta peptides.
# Each assay was conducted as follows. […] Quenched reactions were analyzed by HPLC on a 5 μm, C18 reversed-phase column (Sephasil Peptide, 4.6×100 mm; Amersham Pharmacia Biotech, Piscataway, N.J.) using first a linear gradient of 18-31.5 percent acetonitrile in 0.1 percent TFA over 40 minutes, then 31.5-81 percent acetonitrile for 1 minute, then 81 percent acetonitrile for 4 minutes, and then returning to 18-percent acetonitrile for several minutes to reequilibrate the column. […] Proteolysis of the Sw and WT octapeptides was evaluated using a linear gradient of 27-37.8 percent acetonitrile over 24 minutes on the same column.
# Both product and substrate were monitored by absorbance at 360 nm. […]
# The concentration of standard was determined from the extinction coefficient of DNP (e365nm=16 mM^−1cm^−1). […]
# 293T-APPsw101 cell line [2] = assay: Assay for the 42 amino acid form of A-beta in medium of transfected cells; format: cell-based, human; conditions: Single Clone
# Protocol: (§1) A duplicate of each master cDNA 96 well plate was prepared. Each well of the duplicate plate contained about 75 microliters of Optimem I medium (Life Technologies Inc, Gaithersburg, Md.) and about 300 ng of cDNA library. About 75 microliters of a mixture of 12 microliters DMRIE-C Lipid per ml of Optimem I medium (Life Technologies Inc., Gaithersburg, Md.) was added to each well of the 96 well plate using a Multipette (Sagian Inc. Indianapolis, Ind.) robotic pipettor. The DMRIE C was allowed to complex for about 30 minutes. Meanwhile, the media was removed from a 96 well dish in which each well had been plated with about 15,000 cells/well of the 293T-APPsw 101 cell line two days before. About 125 microliters of the DNA/Lipid complex was added to each well of cells. The cells containing the DNA/lipid mixture were then incubated at 37 degrees C., 5 percent CO2 for about five hours. After incubation, 125 μl Optimem I supplemented with 20 percent FBS and 2× Penicillin/Streptomycin (0.1 unit/ml Penicillin, 0.1 μg/ml Streptomycin) (Life Technologies Inc., Gaithersburg, Md.) was added to stop the transfection. […] The medium from each well was then harvested, diluted 1:1 in Superblock (Pierce Inc., Rockford, Ill.), stamped into pre-coated ELISA plates and analyzed for the presence of A-beta as described below. […]
# 293T-APPsw101 cell line [3] = assay: Assay for total beta amyloid peptide in medium of transfected cells; format: cell-based, human; conditions: Single Clone; diluted 1:10 into pCMVi vector DNA; average of duplicate transfections
# Protocol: as §1
# T1 sequence (P56817 with tags, fused parts or gaps limits assumed): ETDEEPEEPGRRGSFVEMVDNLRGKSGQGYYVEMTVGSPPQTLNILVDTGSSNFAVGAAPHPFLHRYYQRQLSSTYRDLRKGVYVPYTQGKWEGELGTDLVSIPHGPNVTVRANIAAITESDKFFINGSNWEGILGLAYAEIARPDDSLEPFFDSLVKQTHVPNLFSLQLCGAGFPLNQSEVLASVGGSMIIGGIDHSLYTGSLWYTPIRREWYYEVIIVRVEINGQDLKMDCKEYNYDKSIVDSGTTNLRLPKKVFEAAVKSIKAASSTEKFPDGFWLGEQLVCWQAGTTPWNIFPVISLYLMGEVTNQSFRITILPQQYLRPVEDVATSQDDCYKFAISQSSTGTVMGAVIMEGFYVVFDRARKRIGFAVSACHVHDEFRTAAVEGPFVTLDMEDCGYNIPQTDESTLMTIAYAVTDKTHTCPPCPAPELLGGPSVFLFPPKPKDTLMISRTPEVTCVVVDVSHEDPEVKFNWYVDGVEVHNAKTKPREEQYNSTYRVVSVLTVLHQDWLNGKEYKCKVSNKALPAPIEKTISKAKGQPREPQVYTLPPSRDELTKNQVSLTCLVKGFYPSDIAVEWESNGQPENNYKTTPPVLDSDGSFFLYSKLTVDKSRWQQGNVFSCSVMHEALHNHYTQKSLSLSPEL
Substance,"cleavage of substrate peptide (pmol product formed), preference by the enzyme [1]",A-beta 42/Total (293T-APPsw101 cell line [2]),"A-beta 42 (293T-APPsw101 cell line [2]; diluted 1:10 into pCMVi vector DNA, average of duplicate transfections)",Total (293T-APPsw101 cell line [3])
EVKMDAEF [Wt],preferred over the methionine to valine mutant (MV) substrate,–,–,–
EVNLDAEF [Sw],clearly preferred by the enzyme over the wild type (Wt) substrate,–,–,–
Single Clone (β-Secretase): single cDNA clone from pool A-11 encoding human beta-secretase (SEQ ID NO:1),–,1.1,"327,505 total Europium counts","295,438 total Europium counts"
